{"source": "patent US7919680B2", "about": "“Nucleic acids encoding anthelmintic agents and plants made therefrom” (Divergence, Inc., priority 2004, dated 2011)", "key": {"[1]": {"system": "C. elegans", "assay": "Nematicidal activity of fatty acid methyl ester emulsions, nematode spectrum (Table 6)", "assay_type": "in vivo, Caenorhabditis elegans", "conditions": "C. elegans mixed stage", "description": "(§1) Briefly, the indicated fatty acid emulsions were added to nematodes in wells of a 24-well plate and rapidly mixed by swirling. […] Results shown are mean % values obtained from multiple independent experiments\n(§2) The Caenorhabditis elegans were mixed stage populations. Similar effects were seen on several other free-living nematode species. The Parastrongyloides trichosuri (parasite of Australian bushtail possum) were dauer-like infective 3rd stage larva. Similar effects are also seen against free-living stages. The Meloidogyne incognita and Meloidogyne javanica (root knot nematode) were 2nd stage juveniles (dauer-like infective stage). The Heterodera glycines (soybean cyst nematode) were 2nd stage juveniles (dauer-like infective stage). Finally, the Pratylenchus scribneri (corn lesion nematode) were mixed stage populations."}, "[2]": {"system": "P. scribneri", "assay": "Nematicidal activity of fatty acid methyl ester emulsions, nematode spectrum (Table 6)", "assay_type": "in vivo, Pratylenchus scribneri", "conditions": "P. scribneri mixed stage", "description": "as §1, §2"}, "[3]": {"system": "M. javanica", "assay": "Nematicidal activity of fatty acid methyl ester emulsions against root knot nematode J2 larvae (Table 5)", "assay_type": "in vivo", "conditions": "0.1% emulsion; 48 hours incubation, counted about 24 hours after transfer to plates", "description": "(§3) M. incognita and M. javanica were prepared from tomato roots. The roots were bleached and the debris was separated from the J2 larvae and eggs by filtration followed by sucrose density gradient centrifugation. Eggs were hatched over 4 days at 15° C. and the J2 larvae were collected by passage though a filter, followed by centrifugation.\n(§4) Nematodes and emulsions were incubated with shaking at room temperature for 48 hours. The contents of each well were transferred to a small spot on individual NGM plates lacking bacteria. About 24 hours after the transfer to plates, worms on and off the inoculation spot were counted as not viable or viable, respectively. Worms were considered viable if they had crawled away from the inoculation spot, or if they were moving. Worms were considered non-viable if they remained at the inoculation spot."}, "[4]": {"system": "M. incognita", "assay": "Nematicidal activity of fatty acid methyl ester emulsions against root knot nematode J2 larvae (Table 5)", "assay_type": "in vivo", "conditions": "0.1% emulsion; 48 hours incubation, counted about 24 hours after transfer to plates", "description": "as §3, §4"}, "[5]": {"system": "P. trichosuri", "assay": "Nematicidal activity of fatty acid methyl ester emulsions, nematode spectrum (Table 6)", "assay_type": "in vivo, Parastrongyloides trichosuri", "conditions": "P. trichosuri infective 3rd stage larva", "description": "as §1, §2"}, "[6]": {"system": "M. incognita", "assay": "Nematicidal activity of fatty acid methyl ester emulsions, nematode spectrum (Table 6)", "assay_type": "in vivo, Meloidogyne incognita", "conditions": "M. incognita 2nd stage juveniles, head 24 hr, b171 48 hours", "description": "as §1, §2"}, "[7]": {"system": "C. elegans", "assay": "Nematicidal activity of methyl ester, salt and free fatty acid emulsions vs. C. elegans N2s (Table 3)", "assay_type": "in vivo, Caenorhabditis elegans", "text": "Nematicidal Activity of Single Fatty Acid Methyl Ester, Salt and Free Fatty Acid Emulsions Against Caenorhabditis elegans […] and Dauers"}, "[8]": {"system": "H. glycines", "assay": "Nematicidal activity of fatty acid methyl ester emulsions, nematode spectrum (Table 6)", "assay_type": "in vivo, Heterodera glycines", "conditions": "H. glycines 2nd stage juveniles, head 24 hr, b171 48 hours", "description": "as §1, §2"}, "[9]": {"system": "wide spectrum of divergent nematode genera", "assay": "Summary of Table 6: free-living, animal parasitic and plant parasitic nematodes", "assay_type": "in vivo", "conditions": "concentrations of 0.1% and 0.01%", "description": "as §1"}, "[10]": {"system": "tomato seedlings", "assay": "Phytotoxicity evaluation of fatty acid methyl esters on tomato seedlings", "assay_type": "in vivo", "conditions": "250 μl of 1% emulsion at stem-media interface of two-week seedlings", "description": "Sterilized tomato seeds were germinated in magenta jars containing Gamborg's agar media. After two weeks of growth, seedlings were treated with 250 μl of 1% fatty acid methyl ester emulsion (nonanoic acid, ricinoleic acid, ricinelaidic acid, oleic acid, or a control emulsion lacking any fatty acid), applied directly to the stem-media interface. Tomato seedlings were scored at various times after application of emulsions."}, "[11]": {"system": "C. elegans", "assay": "Nematicidal activity of fatty acid methyl ester emulsions against C. elegans (Table 2)"}, "[12]": {"system": "C. elegans dauers", "assay": "Nematicidal activity of methyl ester, salt and free fatty acid emulsions vs. C. elegans dauers (Table 4)", "assay_type": "in vivo, Caenorhabditis elegans"}, "[13]": {"system": "everted hamster jejunal and ileal segments", "conditions": "Gaginella et al. (1975); cited from earlier work"}, "[14]": {"system": "M. javanica", "assay": "Nematicidal activity of fatty acid methyl ester emulsions, nematode spectrum (Table 6)", "assay_type": "in vivo, Meloidogyne javanica", "conditions": "M. javanica 2nd stage juveniles, head 24 hr, b171 48 hours", "description": "as §1, §2"}, "[15]": {"system": "isolated intestinal epithelial cells", "conditions": "Gaginella et al. (1977); cited from earlier work"}, "[16]": {"system": "L4 and adult C. elegans", "conditions": "Stadler and coworkers; cited from earlier work"}, "[17]": {"system": "Caenorhabditis elegans", "conditions": "100 μg/mL over 24 hours; Momin & Nair (2002); cited from earlier work"}, "[18]": {"system": "Panagrellus redivivus", "conditions": "100 μg/mL over 24 hours; Momin & Nair (2002); cited from earlier work"}}}
{"compound": "CCCCCC[C@@H](O)C/C=C\\CCCCCCCC(=O)OC", "note": "[Ricinoleic Acid (C18-methyl ester), ricinoleic acid methyl ester]", "values": [{"measurement": "% Worm Death (24 hr)", "setting": "[1]; 0.001% solution", "result": 30, "unit": "%"}, {"measurement": "% Worm Death (24 hr)", "setting": "[1]; 0.01% solution", "result": 50, "unit": "%"}, {"measurement": "% Worm Death (24 hr)", "setting": "[1]; 0.1% solution", "result": 90, "unit": "%"}, {"measurement": "% Worm Death (24 hr)", "setting": "[2]; 0.01% solution", "result": "<20", "unit": "%"}, {"measurement": "% Worm Death (24 hr)", "setting": "[2]; 0.1% solution", "result": "<20", "unit": "%"}, {"measurement": "M. javanica (% not viable)", "setting": "[3]", "result": 60, "unit": "%"}, {"measurement": "M. incognita (% not viable)", "setting": "[4]", "result": 95, "unit": "%"}, {"measurement": "% Worm Death (24 hr)", "setting": "[5]; 0.01% solution", "result": "~60", "unit": "%"}, {"measurement": "% Worm Death (24 hr)", "setting": "[5]; 0.1% solution", "result": "~50", "unit": "%"}, {"measurement": "% Worm Death (24 hr)", "setting": "[6]; 0.01% solution", "result": 83, "unit": "%"}, {"measurement": "% Worm Death (24 hr)", "setting": "[6]; 0.1% solution", "result": 95, "unit": "%"}, {"measurement": "worm death", "setting": "[7]; 0.001% emulsion", "result": 20, "unit": "%"}, {"measurement": "worm death", "setting": "[7]; 0.01% emulsion", "result": 40, "unit": "%"}, {"measurement": "worm death", "setting": "[7]; 0.1% emulsion", "result": 90, "unit": "%"}, {"measurement": "% Worm Death (24 hr)", "setting": "[8]; 0.001% solution", "result": "~40", "unit": "%"}, {"measurement": "% Worm Death (24 hr)", "setting": "[8]; 0.01% solution", "result": "~60", "unit": "%"}, {"measurement": "% Worm Death (24 hr)", "setting": "[8]; 0.1% solution", "result": "~60", "unit": "%"}, {"measurement": "nematicidal activity", "setting": "[9]", "result": "strongly nematicidal"}, {"measurement": "phytotoxic effects on tomato seedlings", "setting": "[10]", "result": "low phytotoxicity"}, {"measurement": "Percentage of Worm Death 1 hr", "setting": "[11]; 0.003% emulsion", "result": 40, "unit": "%"}, {"measurement": "Percentage of Worm Death 6 hr", "setting": "[11]; 0.003% emulsion", "result": 40, "unit": "%"}, {"measurement": "Percentage of Worm Death 24 hr", "setting": "[11]; 0.003% emulsion", "result": 40, "unit": "%"}, {"measurement": "Percentage of Worm Death 1 hr", "setting": "[11]; 0.1% emulsion", "result": 80, "unit": "%"}, {"measurement": "Percentage of Worm Death 6 hr", "setting": "[11]; 0.1% emulsion", "result": 80, "unit": "%"}, {"measurement": "Percentage of Worm Death 24 hr", "setting": "[11]; 0.1% emulsion", "result": 90, "unit": "%"}, {"measurement": "nematicidal activity", "setting": "[11]; concentration of 0.1%", "result": "strongly nematicidal"}, {"measurement": "time before strong killing effects are apparent", "setting": "[11]; emulsion, Table 2", "result": "up to 30 minutes"}, {"measurement": "worm death", "setting": "[12]; 0.01% emulsion", "result": 30, "unit": "%"}, {"measurement": "worm death", "setting": "[12]; 0.1% emulsion", "result": 70, "unit": "%"}, {"measurement": "effect on water and electrolyte absorption", "setting": "[13]", "result": "ineffective"}, {"measurement": "% Worm Death (24 hr)", "setting": "[14]; 0.01% solution", "result": 5, "unit": "%"}, {"measurement": "% Worm Death (24 hr)", "setting": "[14]; 0.1% solution", "result": 60, "unit": "%"}]}
{"compound": "CCCCCC[C@@H](O)C/C=C\\CCCCCCCC(=O)O", "note": "[R free acid, ricinoleic acid]", "values": [{"measurement": "worm death", "setting": "[7]; 0.001% emulsion", "result": "<5", "unit": "%"}, {"measurement": "worm death", "setting": "[7]; 0.01% emulsion", "result": 50, "unit": "%"}, {"measurement": "worm death", "setting": "[7]; 0.1% emulsion", "result": 95, "unit": "%"}, {"measurement": "cytotoxicity", "setting": "[15]", "result": "cytotoxic"}, {"measurement": "worm death", "setting": "[12]; 0.01% emulsion", "result": 75, "unit": "%"}, {"measurement": "worm death", "setting": "[12]; 0.1% emulsion", "result": 90, "unit": "%"}, {"measurement": "effect on water and electrolyte absorption", "setting": "[13]", "result": "inhibitory effect"}]}
{"compound": "CCCCCCCC/C=C\\CCCCCCCC(=O)O", "note": "[oleic acid]", "values": [{"measurement": "LD50", "setting": "[16]", "result": 25, "unit": "µg/mL"}, {"measurement": "LD90", "setting": "[16]", "result": 100, "unit": "µg/mL"}, {"measurement": "nematicidal activity", "setting": "[17]", "result": "not nematicidal"}, {"measurement": "nematicidal activity", "setting": "[18]", "result": "not nematicidal"}]}
